Our source for the cytotoxicity values is ChEMBL document CHEMBL3507680, “University of Dundee, Gates Library screen for HepG2 cell viability”.

Molecules are shown by their SMILES.

The data set can be described thus: Human HepG2 cell viability assay in 384 well format. The class given is toxicity, cell-based. To be noted: HepG2 cells, read-out: Inhibition. Set-up: dose 125 nL, time 70.5 hour; cytotoxicity at 70.5 h: concentration not given beside the values.
As for `Cc1ccc2c(n1)N(CC(C)C)CCN(C(=O)Cc1ccccn1)C2`, the cytotoxicity at 70.5 h is -4.9%.

For the compound `NC(=O)CN1CC2(CCC1=O)CCN(C(=O)c1ccccc1F)CC2`, the cytotoxicity at 70.5 h was 33.9%.

Consider `O=C(c1cscn1)N1CCC2(CCN(S(=O)(=O)c3ccccc3)C2)C1` (stereo not drawn), for which the cytotoxicity at 70.5 h was -17.7%.

`OC(CNCCn1cccn1)c1cccc(F)c1` (stereo not drawn): the cytotoxicity at 70.5 h is -7.66%.

Take `COCCOCC(=O)N1CCCC(c2ncc[nH]2)C1` (stereo not drawn): the cytotoxicity at 70.5 h is -16.6%.

In the case of `CN1CCN(C2CCN(Cc3noc(C(C)(C)C)n3)CC2)C1=O`, the cytotoxicity at 70.5 h is 9.12%.

As to `CSc1ccc2cc(CN(C)CCCN(C)C)c(=O)[nH]c2c1`, the cytotoxicity at 70.5 h is -11.2%.

As for `Cc1ncsc1C(=O)N(Cc1ccccn1)C1CC1`, the cytotoxicity at 70.5 h was 10%.

Take `Cc1nnc([C@@]23CCO[C@@H]2CCN(S(=O)(=O)c2ccccc2)C3)o1`: the cytotoxicity at 70.5 h was -7.57%.

In the case of `NCC1CCC(c2c(C(=O)NCCO)sc3ccccc23)CC1` (stereo not drawn), the cytotoxicity at 70.5 h was found to be 16.1%.

With `CC(C(=O)NCc1ccc(N2CCNC(=O)C2)cc1)c1cccs1` (stereo not drawn), the cytotoxicity at 70.5 h is -4.67%.

For the compound `O=C1CC(c2ccccc2)C2(CCN(Cc3nccs3)CC2)N1` (stereo not drawn), the cytotoxicity at 70.5 h was -9.09%.

Take `CN(C)C(=O)N1CC2(CCN(S(=O)(=O)C3CC3)CC2)c2ccccc21`: the cytotoxicity at 70.5 h is 0.848%.

On to `CCN1CCn2cc(CNC(=O)c3cnn(C)c3)nc2C1`, for which the cytotoxicity at 70.5 h is -110%.

On to `CC(C)c1nc(CNc2ccc(CCO)cc2)cs1`, for which the cytotoxicity at 70.5 h worked out at 25.6%.

As for `O=C(O)C1(Oc2cccc(F)c2)CCN(c2ccncc2)CC1`, the cytotoxicity at 70.5 h was -0.0629%.

For `CCCc1nc(N2CCCC(CCOC)C2)c2cnn(C)c2n1` (stereo not drawn), the cytotoxicity at 70.5 h came out at 15.9%.

Consider `Cc1nccnc1CN1CCC2(CCCN(C3CCOCC3)C2=O)C1` (stereo not drawn), for which the cytotoxicity at 70.5 h was -2.69%.

As for `O=C(Nc1ccccc1F)C1CSCN1C(=O)CCc1ccco1` (stereo not drawn), the cytotoxicity at 70.5 h was -8.52%.

On to `CCN(Cc1noc(C(C)C)n1)Cc1ccc(C#N)cc1F`, for which the cytotoxicity at 70.5 h was 27.6%.

As for `CC(C)NC(=O)c1nnc2ccc(N3CCOCC3)cc2n1`, the cytotoxicity at 70.5 h is -5.91%.

`Cc1cc(C)n(CC2CN(Cc3nc4ccccc4s3)CCO2)n1` (stereo not drawn): the cytotoxicity at 70.5 h is -5.7%.

As to `CC(C)(NC(=O)c1cnc(-c2ccccc2F)s1)C(N)=O`, the cytotoxicity at 70.5 h was -10.3%.

For `CC(C)OCc1ncn2c1CN(CC1CC1)CCC2`, the cytotoxicity at 70.5 h was found to be 20.2%.

On to `CCN(Cc1cnn(C)c1)C[C@H]1CC[C@@H](Cc2ccc(C#N)cc2)O1`, for which the cytotoxicity at 70.5 h is -17.4%.

For the compound `CCc1ccc(NC(=O)N2Cc3c(CN(C)C)nn(C)c3C2)cc1`, the cytotoxicity at 70.5 h is -2.56%.

Turning to `CN(C)S(=O)(=O)CCCN1CCCC1c1noc(C2CC2)n1` (stereo not drawn), the cytotoxicity at 70.5 h was determined as 22.8%.

As for `O=C(c1ccccn1)N1C[C@@H]2CC[C@H](C1)N(C(=O)CCC1CCCC1)C2`, the cytotoxicity at 70.5 h was -1.69%.

As for `Cc1noc(C)c1CN1CCCC1c1c(C)nn(C)c1Cl` (stereo not drawn), the cytotoxicity at 70.5 h is -2.34%.

Take `Cc1ccc(N2CCN(CC3CC3)C3(CCN(C(C)C)CC3)C2=O)cn1`: the cytotoxicity at 70.5 h was -5.52%.

For the compound `CCn1cncc1CNC(=O)c1ccc(C2CCCN2C(=O)COC)s1` (stereo not drawn), the cytotoxicity at 70.5 h was -12%.

For the compound `O=S(=O)(C1CC1)N1CCC2(CC1)CC(Oc1ccccn1)CO2` (stereo not drawn), the cytotoxicity at 70.5 h was determined as 2.03%.

Take `Cc1oc2c(c1C(=O)N1CC[C@H](O)[C@]3(CCCO3)C1)CCCC2`: the cytotoxicity at 70.5 h was -5.7%.

As for `CCS(=O)(=O)c1ccc(N2CCC(NC(=O)NC(C)CO)CC2)cc1` (stereo not drawn), the cytotoxicity at 70.5 h was -1.95%.

For the compound `O=C(C1CCOCC1)N1C[C@H]2CNC[C@H]2C1`, the cytotoxicity at 70.5 h is -1.57%.

`O=C(NCCNc1ncccn1)NCCc1c(F)cccc1F`: the cytotoxicity at 70.5 h was -13.1%.

Consider `COCCN1CC[C@@H]2OC(COCC(=O)N3CCCC3)CC[C@@H]21` (stereo partly drawn), for which the cytotoxicity at 70.5 h was -3.03%.

For `CC(C)(C)NC(=O)C1(Cc2ccccc2-c2ccncc2)CCOCC1`, the cytotoxicity at 70.5 h came out at 27.7%.

For `CCN(C)S(=O)(=O)N(Cc1cscn1)c1ccccc1`, the cytotoxicity at 70.5 h is -7.14%.

`CN(Cc1ccccn1)C(=O)[C@H]1CO[C@H]2CCN(CC3CC3)C[C@H]2C1`: the cytotoxicity at 70.5 h is -5.92%.

Consider `COC(=O)c1cccn1C1CCN(Cc2cccnc2)CC1`, for which the cytotoxicity at 70.5 h stood at 4.46%.

In the case of `CNS(=O)(=O)CCn1cc(-c2ccc(OC)c(OC)c2)nn1`, the cytotoxicity at 70.5 h is -4.16%.

For `CC1CN(C(=O)c2cc[nH]c(=O)c2)c2ccccc21` (stereo not drawn), the cytotoxicity at 70.5 h is -12.3%.

In the case of `COCCNc1nnc(S(=O)(=O)CCC(C)(C)C#N)s1`, the cytotoxicity at 70.5 h is -5.9%.

As to `Cc1nn(C(C)C)c(C)c1S(=O)(=O)Nc1ccc(C(=O)O)c(Cl)c1`, the cytotoxicity at 70.5 h is -5.52%.

Regarding `CN(Cc1noc(C(C)(C)C)n1)Cc1ccccc1N1CCCC1`, the cytotoxicity at 70.5 h was -8.02%.

`COC(C)(C)CC(C)NCc1cn2ccccc2n1` (stereo not drawn): the cytotoxicity at 70.5 h is -16.8%.

Turning to `COc1ccc(COCC(O)CNC(=O)c2cccnc2)cc1` (stereo not drawn), the cytotoxicity at 70.5 h came out at 32.7%.

Regarding `COc1cccc(CNC(=O)C(C)N2CC(n3nc(C)cc3C)C2)c1` (stereo not drawn), the cytotoxicity at 70.5 h was -12.9%.

For the compound `CCSCC(C)NCc1cn2ccccc2n1` (stereo not drawn), the cytotoxicity at 70.5 h was -20.2%.

On to `COCCCN(Cc1ccncc1)C(=O)CSc1ccc(F)cc1`, for which the cytotoxicity at 70.5 h was -5.19%.

On to `O=C(NCCc1ccccc1)C1CCCN(c2ccc3nncn3n2)C1` (stereo not drawn), for which the cytotoxicity at 70.5 h was -9.33%.

For `CCc1ccc(C2CCCCCN2C(=O)CNC(=O)NC2CC2)o1` (stereo not drawn), the cytotoxicity at 70.5 h is -1.33%.

With `COc1ccccc1N(C)Cc1nc2c(cnn2C)c(=O)[nH]1`, the cytotoxicity at 70.5 h was -4.86%.

As to `CNS(=O)(=O)c1cccc(C(C)NCc2ccc(F)c(F)c2)c1` (stereo not drawn), the cytotoxicity at 70.5 h is -6.64%.

Regarding `Cc1ccccc1N1CC(c2nnc(N)s2)CC1=O` (stereo not drawn), the cytotoxicity at 70.5 h was 3.37%.

Turning to `CCOc1cc(C)nc(N2CCN(C(=O)Cn3cc(C)cn3)CC2)n1`, the cytotoxicity at 70.5 h was -0.0989%.

For the compound `CCOc1ccc(NC(=O)NC2CCc3[nH]ncc3C2)cn1` (stereo not drawn), the cytotoxicity at 70.5 h is -2.96%.

Turning to `c1coc(CN2CCc3onc(Cn4ccnc4)c3C2)c1`, the cytotoxicity at 70.5 h is -2.36%.

For the compound `Cc1nccn1CCCn1cncc1-c1ccc2c(c1)CC(C)N2C` (stereo not drawn), the cytotoxicity at 70.5 h was 3.68%.

For the compound `Cc1cnc(C(=O)N2CCOCC2C)cn1` (stereo not drawn), the cytotoxicity at 70.5 h was -16.2%.

Turning to `CC(=O)N1CCC(c2cc(C(F)(F)F)nc3nccn23)CC1`, the cytotoxicity at 70.5 h was -8.29%.

With `Cc1ccc(CN2CCN(Cc3ccncc3)[C@@H]3CS(=O)(=O)C[C@@H]32)cc1`, the cytotoxicity at 70.5 h was -7.92%.

Regarding `COc1cccc(SCC(=O)N2CCC(N3CCCC3=O)CC2)c1`, the cytotoxicity at 70.5 h was -6.36%.

Regarding `O=C(NC1CC1)N1CCCC2(CCCCN2)C1` (stereo not drawn), the cytotoxicity at 70.5 h is -5.05%.

Regarding `Cc1nc([C@@H]2C[C@@H]3CCN(C(=O)Cc4ccsc4)C[C@H]3O2)no1`, the cytotoxicity at 70.5 h was -13.8%.

In the case of `CCCS(=O)(=O)N1CCC2(CC1)CC(Nc1ncccn1)CO2` (stereo not drawn), the cytotoxicity at 70.5 h is -99.6%.

Consider `CCCS(=O)(=O)N1C[C@H](N(C)Cc2ccco2)[C@@H]2OCCC[C@@H]21`, for which the cytotoxicity at 70.5 h is -6.06%.

With `CN(CC(=O)N(C)C1CCCCC1)Cc1nc2c(cnn2C)c(=O)[nH]1`, the cytotoxicity at 70.5 h is 8.15%.

`Cn1cc(S(=O)(=O)N2CCCC2Cn2ccnc2)cn1` (stereo not drawn): the cytotoxicity at 70.5 h is -3.56%.

For `CCc1nc2n(n1)CC(NCc1cn(C)nc1-c1cccnc1)CC2` (stereo not drawn), the cytotoxicity at 70.5 h was -4.07%.

On to `CCN(CC)C1CCN(C(=O)NCc2cccc(-n3cccn3)c2)C1` (stereo not drawn), for which the cytotoxicity at 70.5 h was -8.43%.

`O=C1C(Nc2ccc3nccnc3n2)CCN1c1ccccc1F` (stereo not drawn): the cytotoxicity at 70.5 h is -9.82%.

On to `CC(C)C1CN(C(=O)c2cc(=O)[nH]c(=O)[nH]2)CCCN1CC1CC1` (stereo not drawn), for which the cytotoxicity at 70.5 h was -0.864%.

For the compound `CC(=O)N(Cc1ncc(C(C)C)o1)C1CCN(Cc2nccn2C)C1` (stereo not drawn), the cytotoxicity at 70.5 h is -0.826%.

With `O=C(c1ccno1)N1CCC2(CC(=O)N(c3ccc4c(c3)OCO4)C2)C1` (stereo not drawn), the cytotoxicity at 70.5 h was -0.613%.

For the compound `Cc1nnc(NC(=O)NC(C)C(=O)NC2CCCC2)s1` (stereo not drawn), the cytotoxicity at 70.5 h was -3.86%.

For the compound `Cc1ccc(CN2CCc3ncnc(-c4ccoc4)c3CC2)o1`, the cytotoxicity at 70.5 h turned out to be 2.47%.

For the compound `Cc1cc(C)nc(NC2CC(=O)N(C(C)(C)C)C2)n1` (stereo not drawn), the cytotoxicity at 70.5 h came to 7.77%.

With `Cc1ccc(C2CSCCN2C(=O)c2ccncc2)cc1` (stereo not drawn), the cytotoxicity at 70.5 h is 0.0663%.

`COC(=O)C1CCCN1C(=O)c1ccc(Cl)cc1F` (stereo not drawn): the cytotoxicity at 70.5 h is -2.57%.

In the case of `Cc1noc(C)c1CN(C)C(=O)NC1CCC(O)CC1` (stereo not drawn), the cytotoxicity at 70.5 h is -8.86%.

In the case of `CS(=O)(=O)N1CCCC(Cc2cnc(Br)cn2)CC1` (stereo not drawn), the cytotoxicity at 70.5 h came out at 13.7%.

With `COc1ccc([C@@H]2CN(c3cnccn3)C[C@H]2N(C)C)cc1`, the cytotoxicity at 70.5 h was 22%.

Take `Cc1ccc(-c2ccnc(N[C@H]3COC[C@@H]3N3CCCC3)n2)c(C)n1`: the cytotoxicity at 70.5 h is -10.9%.

`Cc1cnc(NCc2ccc(S(=O)(=O)N(C)C(C)C)cc2)nc1C`: the cytotoxicity at 70.5 h is -11.1%.

In the case of `CC(NCc1nnc2n1CCCC2)C(=O)N1CCc2sccc2C1` (stereo not drawn), the cytotoxicity at 70.5 h is -2.4%.

As for `CCc1cc(C(=O)N2CCC3(CCCN(CCOC)C3=O)C2)cs1` (stereo not drawn), the cytotoxicity at 70.5 h was -9.21%.

As for `O=C1COc2ccc(Br)cc2CN1CC1CC1`, the cytotoxicity at 70.5 h is -16.7%.

As for `Cc1ccc(-c2ncc(C(=O)N3CCCN4CCC[C@H]4C3)c(O)n2)cc1`, the cytotoxicity at 70.5 h turned out to be 5.02%.

Turning to `CN(CCc1cccs1)C1CCCN(Cc2noc(C3CC3)n2)C1` (stereo not drawn), the cytotoxicity at 70.5 h was determined as 8.79%.

With `CC(=O)NC(CC(=O)Nc1nc(C)c(C)s1)c1ccccc1` (stereo not drawn), the cytotoxicity at 70.5 h worked out at 0.551%.

`CN1CCC(c2cccc(Cc3ccc(C(F)(F)F)cc3)n2)CC1`: the cytotoxicity at 70.5 h is -0.939%.

For `CCc1cccc(N2CCC(NC(=O)c3cc[nH]n3)CC2)c1`, the cytotoxicity at 70.5 h is 31.2%.

`CCC1=N[C@@]2(CC[C@@H]3CN(Cc4ccc(Cl)cc4)C[C@@H]32)C(=O)N1`: the cytotoxicity at 70.5 h was -3.73%.

Regarding `CN(C)c1ccc(NC(=O)c2ccnn2C)nc1`, the cytotoxicity at 70.5 h was determined as 0.439%.

`Cn1cc(C2NC3(CCCC3)C(=O)N2CC2CC2)c(=O)n(C)c1=O` (stereo not drawn): the cytotoxicity at 70.5 h was -5.99%.

`CCOCCCn1c(NC(=O)c2ccc(C)nc2)nc2ccccc21`: the cytotoxicity at 70.5 h was -5.03%.
